Results on 27 compounds are retold here after patent US10239869B2, “Sulfonamide compounds as voltage-gated sodium channel modulators” (LUPIN LIMITED, priority 2015, dated 2019).

One data set deals with Nav 1.5 (Homo sapiens (Human), UniProt Q14524). The experiment in a line: Inhibition of sodium channels, Red Membrane Potential Dye FLIPR assay, veratridine depolarization. The data set is classed as cell-based. Particulars: HEK-293 cells overexpressing the channel.
A further data set addresses Nav 1.7 (Homo sapiens (Human), UniProt Q15858). The data set is described as above. The data set is classed as cell-based. Particulars: HEK-293 cells overexpressing the channel; for IC50: read-out: Nav1.7 IC50.
[1] abbreviates: read-out: Nav1.5 IC50 (bound given in μM).

Like-named read-outs stand apart in the source and are kept apart here.

For orientation: IC50 means the point on the concentration scale where inhibition reaches its midpoint.

Sequence of Nav 1.7 (Q15858 whole entry): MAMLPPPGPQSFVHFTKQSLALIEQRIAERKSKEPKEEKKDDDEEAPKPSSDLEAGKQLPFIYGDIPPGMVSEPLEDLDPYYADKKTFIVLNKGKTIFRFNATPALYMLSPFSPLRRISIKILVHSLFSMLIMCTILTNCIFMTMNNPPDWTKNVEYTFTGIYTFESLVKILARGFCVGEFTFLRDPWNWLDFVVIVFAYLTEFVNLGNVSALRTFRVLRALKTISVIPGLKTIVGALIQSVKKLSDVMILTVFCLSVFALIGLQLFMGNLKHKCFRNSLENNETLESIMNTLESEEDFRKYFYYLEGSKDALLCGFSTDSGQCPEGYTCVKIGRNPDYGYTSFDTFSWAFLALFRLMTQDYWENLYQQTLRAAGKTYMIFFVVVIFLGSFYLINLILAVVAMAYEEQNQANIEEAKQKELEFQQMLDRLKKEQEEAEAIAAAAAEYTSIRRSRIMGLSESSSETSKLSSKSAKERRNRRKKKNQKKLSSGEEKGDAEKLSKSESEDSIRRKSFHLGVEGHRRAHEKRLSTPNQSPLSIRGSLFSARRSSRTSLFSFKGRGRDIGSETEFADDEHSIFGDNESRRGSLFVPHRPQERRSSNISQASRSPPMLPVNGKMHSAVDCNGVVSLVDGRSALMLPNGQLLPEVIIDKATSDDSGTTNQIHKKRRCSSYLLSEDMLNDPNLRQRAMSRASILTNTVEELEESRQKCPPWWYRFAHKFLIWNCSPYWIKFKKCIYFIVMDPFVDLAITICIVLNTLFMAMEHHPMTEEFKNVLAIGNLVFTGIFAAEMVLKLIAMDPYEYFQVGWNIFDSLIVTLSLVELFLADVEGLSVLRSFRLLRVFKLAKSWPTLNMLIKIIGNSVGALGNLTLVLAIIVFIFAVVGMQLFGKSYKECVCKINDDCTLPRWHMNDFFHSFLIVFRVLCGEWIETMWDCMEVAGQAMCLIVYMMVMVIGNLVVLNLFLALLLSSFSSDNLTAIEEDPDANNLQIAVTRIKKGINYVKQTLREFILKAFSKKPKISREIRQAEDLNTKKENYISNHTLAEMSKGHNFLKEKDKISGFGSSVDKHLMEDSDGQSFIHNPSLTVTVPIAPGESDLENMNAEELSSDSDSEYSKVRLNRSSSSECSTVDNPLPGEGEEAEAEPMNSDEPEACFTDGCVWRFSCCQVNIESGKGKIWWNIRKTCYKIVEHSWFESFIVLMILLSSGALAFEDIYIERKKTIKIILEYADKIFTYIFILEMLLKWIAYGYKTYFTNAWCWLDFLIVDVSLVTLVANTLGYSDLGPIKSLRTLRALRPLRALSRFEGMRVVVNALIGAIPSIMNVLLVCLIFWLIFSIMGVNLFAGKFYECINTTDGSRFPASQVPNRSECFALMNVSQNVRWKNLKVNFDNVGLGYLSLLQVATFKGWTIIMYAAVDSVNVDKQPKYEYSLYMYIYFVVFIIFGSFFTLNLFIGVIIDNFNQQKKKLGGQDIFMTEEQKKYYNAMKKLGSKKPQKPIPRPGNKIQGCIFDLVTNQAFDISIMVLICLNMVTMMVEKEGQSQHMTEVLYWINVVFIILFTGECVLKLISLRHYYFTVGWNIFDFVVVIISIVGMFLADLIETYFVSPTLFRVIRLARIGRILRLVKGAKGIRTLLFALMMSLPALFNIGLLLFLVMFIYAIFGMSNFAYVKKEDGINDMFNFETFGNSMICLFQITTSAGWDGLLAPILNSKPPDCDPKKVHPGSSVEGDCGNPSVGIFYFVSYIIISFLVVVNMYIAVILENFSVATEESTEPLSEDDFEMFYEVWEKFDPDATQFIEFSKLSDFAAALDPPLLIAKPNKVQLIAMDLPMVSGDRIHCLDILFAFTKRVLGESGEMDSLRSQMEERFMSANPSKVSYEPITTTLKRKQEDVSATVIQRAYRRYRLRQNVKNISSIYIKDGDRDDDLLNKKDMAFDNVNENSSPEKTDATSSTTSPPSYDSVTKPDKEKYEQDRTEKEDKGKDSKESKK
Sequence of Nav 1.5 (Q14524 whole entry): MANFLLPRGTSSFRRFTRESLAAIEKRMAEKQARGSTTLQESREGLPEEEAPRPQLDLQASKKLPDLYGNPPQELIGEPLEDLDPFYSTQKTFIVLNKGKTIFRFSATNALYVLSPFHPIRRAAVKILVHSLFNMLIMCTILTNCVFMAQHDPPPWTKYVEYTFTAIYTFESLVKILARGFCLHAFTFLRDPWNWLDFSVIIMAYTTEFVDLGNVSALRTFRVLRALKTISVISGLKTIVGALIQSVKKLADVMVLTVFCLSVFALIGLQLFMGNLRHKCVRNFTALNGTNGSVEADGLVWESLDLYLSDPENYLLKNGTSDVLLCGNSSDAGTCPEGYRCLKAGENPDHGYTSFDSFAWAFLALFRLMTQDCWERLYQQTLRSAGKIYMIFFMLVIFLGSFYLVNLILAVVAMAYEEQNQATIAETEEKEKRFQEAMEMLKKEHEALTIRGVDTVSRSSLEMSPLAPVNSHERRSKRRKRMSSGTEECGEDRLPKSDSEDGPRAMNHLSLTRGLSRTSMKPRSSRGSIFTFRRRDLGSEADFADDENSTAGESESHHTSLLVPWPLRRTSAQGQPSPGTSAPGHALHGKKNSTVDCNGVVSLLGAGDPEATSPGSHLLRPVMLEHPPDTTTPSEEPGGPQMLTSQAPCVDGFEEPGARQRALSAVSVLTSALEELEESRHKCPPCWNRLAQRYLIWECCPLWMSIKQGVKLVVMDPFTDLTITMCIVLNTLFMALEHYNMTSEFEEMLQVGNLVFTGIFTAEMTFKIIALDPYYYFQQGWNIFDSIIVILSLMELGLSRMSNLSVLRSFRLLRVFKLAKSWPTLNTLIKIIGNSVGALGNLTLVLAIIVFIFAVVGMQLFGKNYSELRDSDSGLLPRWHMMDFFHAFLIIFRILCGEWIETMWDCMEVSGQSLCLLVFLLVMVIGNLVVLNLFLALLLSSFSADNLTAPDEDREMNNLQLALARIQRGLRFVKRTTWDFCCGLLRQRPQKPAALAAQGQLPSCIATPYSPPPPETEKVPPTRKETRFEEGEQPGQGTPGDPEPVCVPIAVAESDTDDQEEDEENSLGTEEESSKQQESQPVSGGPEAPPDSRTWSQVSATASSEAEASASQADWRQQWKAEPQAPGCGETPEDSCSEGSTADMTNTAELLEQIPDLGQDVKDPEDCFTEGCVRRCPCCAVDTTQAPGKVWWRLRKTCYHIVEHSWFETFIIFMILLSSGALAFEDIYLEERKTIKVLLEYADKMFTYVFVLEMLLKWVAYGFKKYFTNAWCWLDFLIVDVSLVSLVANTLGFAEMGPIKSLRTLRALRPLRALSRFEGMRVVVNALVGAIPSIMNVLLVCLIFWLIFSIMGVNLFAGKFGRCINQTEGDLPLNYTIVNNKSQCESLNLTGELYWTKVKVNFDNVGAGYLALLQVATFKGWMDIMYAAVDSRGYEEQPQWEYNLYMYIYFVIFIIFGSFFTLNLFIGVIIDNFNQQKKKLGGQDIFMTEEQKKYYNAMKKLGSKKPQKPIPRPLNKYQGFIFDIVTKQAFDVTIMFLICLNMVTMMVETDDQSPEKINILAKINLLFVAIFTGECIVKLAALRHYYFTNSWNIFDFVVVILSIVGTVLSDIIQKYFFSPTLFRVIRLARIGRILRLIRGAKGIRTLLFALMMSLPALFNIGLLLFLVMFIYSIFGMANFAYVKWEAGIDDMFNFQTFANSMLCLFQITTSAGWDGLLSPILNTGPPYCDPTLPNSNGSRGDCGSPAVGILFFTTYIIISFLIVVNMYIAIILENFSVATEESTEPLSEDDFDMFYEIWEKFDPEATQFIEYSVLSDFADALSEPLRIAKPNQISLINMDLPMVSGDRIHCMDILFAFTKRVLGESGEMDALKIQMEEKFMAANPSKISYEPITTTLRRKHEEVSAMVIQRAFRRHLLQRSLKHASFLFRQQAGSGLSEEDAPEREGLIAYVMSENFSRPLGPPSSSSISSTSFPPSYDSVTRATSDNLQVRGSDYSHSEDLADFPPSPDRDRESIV

For `Cc1nc(-c2cc(C(F)(F)F)ccc2[C@@H]2CCOc3cc(S(=O)(=O)Nc4cccnn4)ccc32)co1` [Example 79, (S&R)-4-(2-(2-methyloxazol-4-yl)-4-(trifluoromethyl)phenyl)-N-(pyridazin-3-yl)chroman-7-sulfonamide], the figures for the IC50 at Nav 1.5 (setting [1]) and on Nav 1.7 were greater than 10 µM and 2520 nM, respectively.

Regarding `Cc1nc(-c2cc(C(F)(F)F)ccc2[C@H]2CCOc3cc(S(=O)(=O)Nc4cccnn4)ccc32)co1` [Example 80, (S&R)-4-(2-(2-methyloxazol-4-yl)-4-(trifluoromethyl)phenyl)-N-(pyridazin-3-yl)chroman-7-sulfonamide], the “Nav1.5 % inhibition @ 10 μM” value on Nav 1.5 is reported as 53%. Also, the IC50 on Nav 1.7 was 114 nM.

Turning to `CS(=O)(=O)CCc1cc(C(F)(F)F)ccc1[C@@H]1CCOc2cc(S(=O)(=O)Nc3cccc(F)n3)ccc21` [Example 81, (S&R)—N-(6-Fluoropyridin-2-yl)-4-(2-(2-(methylsulfonyl)ethyl)-4-(trifluoromethyl)phenyl)chroman-7-sulfonamide], at Nav 1.5, the “Nav1.5 % inhibition @ 10 μM” value was found to be 34%. Besides, the IC50 on Nav 1.7 worked out at 993 nM.

`CS(=O)(=O)CCc1cc(C(F)(F)F)ccc1[C@H]1CCOc2cc(S(=O)(=O)Nc3cccc(F)n3)ccc21` [Example 82, (S&R)—N-(6-Fluoropyridin-2-yl)-4-(2-(2-(methylsulfonyl)ethyl)-4-(trifluoromethyl)phenyl)chroman-7-sulfonamide]: the figures for the IC50 at Nav 1.5 (setting [1]) and at Nav 1.7 were greater than 10 µM and 20 nM, respectively.

Take `CS(=O)(=O)CCc1cc(C(F)(F)F)ccc1[C@@H]1CCOc2cc(S(=O)(=O)Nc3ncccn3)ccc21` [Example 83, (S&R)-4-(2-(2-(Methylsulfonyl)ethyl)-4-(trifluoromethyl)phenyl)-N-(pyrimidin-2-yl)chroman-7-sulfonamide]: the IC50 on Nav 1.5 (setting [1]) is greater than 10 µM. Also, the “Nav1.7 inhibition @ 10 μM” value at Nav 1.7 amounted to 71%.

With `CS(=O)(=O)CCc1cc(C(F)(F)F)ccc1[C@H]1CCOc2cc(S(=O)(=O)Nc3ncccn3)ccc21` [Example 84, (S&R)-4-(2-(2-(Methylsulfonyl)ethyl)-4-(trifluoromethyl)phenyl)-N-(pyrimidin-2-yl)chroman-7-sulfonamide], the IC50 is greater than 10 µM at Nav 1.5 (setting [1]) and 2580 nM at Nav 1.7.

Consider `CS(=O)(=O)CCc1cc(C(F)(F)F)ccc1[C@@H]1CCOc2cc(S(=O)(=O)Nc3ncc(F)cn3)ccc21` [Example 85, (S&R)—N-(5-Fluoropyrimidin-2-yl)-4-(2-(2-(methylsulfonyl)ethyl)-4-(trifluoromethyl)phenyl)chroman-7-sulfonamide], for which the results for the IC50 at Nav 1.5 (setting [1]) and on Nav 1.7 were greater than 10 µM and 2720 nM, respectively.

For the compound `CS(=O)(=O)CCc1cc(C(F)(F)F)ccc1[C@H]1CCOc2cc(S(=O)(=O)Nc3ncc(F)cn3)ccc21` [Example 86, (S&R)—N-(5-Fluoropyrimidin-2-yl)-4-(2-(2-(methylsulfonyl)ethyl)-4-(trifluoromethyl)phenyl)chroman-7-sulfonamide], the IC50 on Nav 1.5 (setting [1]) is greater than 10 µM; on Nav 1.7, 2390 nM.

With `CS(=O)(=O)CCc1cc(C(F)(F)F)ccc1[C@@H]1CCOc2cc(S(=O)(=O)Nc3ccncn3)ccc21` [Example 87, (S&R)-4-(2-(2-(Methylsulfonyl)ethyl)-4-(trifluoromethyl)phenyl)-N-(pyrimidin-4-yl) chroman-7-sulfonamide], on Nav 1.5 (setting [1]), the IC50 was greater than 10 µM. The “Nav1.7 inhibition @ 10 μM” value at Nav 1.7 was 58%.

Consider `CS(=O)(=O)CCc1cc(C(F)(F)F)ccc1[C@H]1CCOc2cc(S(=O)(=O)Nc3ccncn3)ccc21` [Example 88, (S&R)-4-(2-(2-(Methylsulfonyl)ethyl)-4-(trifluoromethyl)phenyl)-N-(pyrimidin-4-yl) chroman-7-sulfonamide], for which the IC50 was greater than 10 µM on Nav 1.5 (setting [1]) and 626 nM on Nav 1.7.

Turning to `O=S(=O)(Nc1cccc(F)n1)c1ccc2c(c1)OCC[C@H]2c1ccc(C(F)(F)F)cc1-n1cccn1` [Example 89, (S&R)-4-(2-(1H-pyrazol-1-yl)-4-(trifluoromethyl)phenyl)-N-(6-fluoropyridin-2-yl)chroman-7-sulfonamide], the IC50 on Nav 1.5 (setting [1]) is greater than 10 µM; on Nav 1.7 it was 108 nM.

Regarding `O=S(=O)(Nc1cccc(F)n1)c1ccc2c(c1)OCC[C@@H]2c1ccc(C(F)(F)F)cc1-n1cccn1` [Example 90, (S&R)-4-(2-(1H-pyrazol-1-yl)-4-(trifluoromethyl)phenyl)-N-(6-fluoropyridin-2-yl)chroman-7-sulfonamide], the IC50 at Nav 1.5 (setting [1]) was greater than 10 µM; at Nav 1.7 it was 15 nM.

Take `CC(C)Oc1ccc(-c2cc(C(F)(F)F)ccc2[C@@H]2CCOc3cc(S(=O)(=O)Nc4ncccn4)ccc32)cn1` [Example 97, (S&R)-4-(2-(6-isopropoxypyridin-3-yl)-4-(trifluoromethyl)phenyl)-N-(pyrimidin-2-yl)chroman-7-sulfonamide]: the “Nav1.5 % inhibition @ 10 μM” value on Nav 1.5 was found to be 71%. The IC50 at Nav 1.7 is 170 nM.

As to `CC(C)Oc1ccc(-c2cc(C(F)(F)F)ccc2[C@H]2CCOc3cc(S(=O)(=O)Nc4ncccn4)ccc32)cn1` [Example 98, (S&R)-4-(2-(6-isopropoxypyridin-3-yl)-4-(trifluoromethyl)phenyl)-N-(pyrimidin-2-yl)chroman-7-sulfonamide], the IC50 on Nav 1.5 (read-out: Nav1.5 IC50) is 0.432 µM; on Nav 1.7, 11 nM.

Consider `CC(C)Oc1ccc(-c2cc(C(F)(F)F)ccc2[C@@H]2CCOc3cc(S(=O)(=O)Nc4ncc(F)cn4)ccc32)cn1` [Example 99, (S&R)—N-(5-fluoropyrimidin-2-yl)-4-(2-(6-isopropoxypyridin-3-yl)-4-(trifluoromethyl)phenyl)chroman-7-sulfonamide], for which the “Nav1.5 % inhibition @ 10 μM” value at Nav 1.5 is on record as 80%. Also, the IC50 at Nav 1.7 came to 1060 nM.

Regarding `CC(C)Oc1ccc(-c2cc(C(F)(F)F)ccc2[C@H]2CCOc3cc(S(=O)(=O)Nc4ncc(F)cn4)ccc32)cn1` [Example 100, (S&R)—N-(5-fluoropyrimidin-2-yl)-4-(2-(6-isopropoxypyridin-3-yl)-4-(trifluoromethyl)phenyl)chroman-7-sulfonamide], the values for the IC50 on Nav 1.5 (setting [1]) and on Nav 1.7 were greater than 10 µM and 75 nM, respectively.

Regarding `CCOc1ccc(-c2cc(C(F)(F)F)ccc2[C@@H]2CCOc3cc(S(=O)(=O)Nc4ncc(F)cn4)ccc32)cn1` [Example 101, (S&R)-4-(2-(6-ethoxypyridin-3-yl)-4-(trifluoromethyl)phenyl)-N-(5-fluoropyrimidin-2-yl)chroman-7-sulfonamide], the “Nav1.5 % inhibition @ 10 μM” value on Nav 1.5 was 51%. For the same compound, the IC50 at Nav 1.7 turned out to be 2590 nM.

`CCOc1ccc(-c2cc(C(F)(F)F)ccc2[C@H]2CCOc3cc(S(=O)(=O)Nc4ncc(F)cn4)ccc32)cn1` [Example 102, (S&R)-4-(2-(6-ethoxypyridin-3-yl)-4-(trifluoromethyl)phenyl)-N-(5-fluoropyrimidin-2-yl)chroman-7-sulfonamide]: the half-maximal inhibitory concentration (IC50) is greater than 10 µM on Nav 1.5 (setting [1]) and 39 nM on Nav 1.7.

As for `O=S(=O)(Nc1ncccn1)c1ccc2c(c1)OCC[C@H]2c1ccc(C(F)(F)F)cc1C1CCOCC1` [Example 109, (S&R)—N-(pyrimidin-2-yl)-4-(2-(tetrahydro-2H-pyran-4-yl)-4-(trifluoromethyl)phenyl)chroman-7-sulfonamide], the results for the IC50 on Nav 1.5 (setting [1]) and at Nav 1.7 were greater than 10 µM and 740 nM, respectively.

As for `O=S(=O)(Nc1ncccn1)c1ccc2c(c1)OCC[C@@H]2c1ccc(C(F)(F)F)cc1C1CCOCC1` [Example 110, (S&R)—N-(pyrimidin-2-yl)-4-(2-(tetrahydro-2H-pyran-4-yl)-4-(trifluoromethyl)phenyl)chroman-7-sulfonamide], the figures for the IC50 at Nav 1.5 (read-out: Nav1.5 IC50) and at Nav 1.7 were 1.75 µM and 156 nM, respectively.

In the case of `O=C1CCCN1c1cc(C(F)(F)F)ccc1[C@@H]1CCOc2cc(S(=O)(=O)Nc3cccc(F)n3)ccc21` [Example 111, (S&R)—N-(6-Fluoropyridin-2-yl)-4-(2-(2-oxopyrrolidin-1-yl)-4-(trifluoromethyl)phenyl)chroman-7-sulfonamide], the “Nav1.5 % inhibition @ 10 μM” value on Nav 1.5 amounted to 67%. Moreover, at Nav 1.7, the IC50 came out at 814 nM.

Consider `O=C1CCCN1c1cc(C(F)(F)F)ccc1[C@H]1CCOc2cc(S(=O)(=O)Nc3cccc(F)n3)ccc21` [Example 112, (S&R)—N-(6-Fluoropyridin-2-yl)-4-(2-(2-oxopyrrolidin-1-yl)-4-(trifluoromethyl)phenyl)chroman-7-sulfonamide], for which the “Nav1.5 % inhibition @ 10 μM” value at Nav 1.5 is listed as 65%. Also, the IC50 on Nav 1.7 amounted to 801 nM.

As to `O=C1CCCN1c1cc(C(F)(F)F)ccc1[C@@H]1CCOc2cc(S(=O)(=O)Nc3ncc(F)cn3)ccc21` [Example 113, (S&R)—N-(5-fluoropyrimidin-2-yl)-4-(2-(2-oxopyrrolidin-1-yl)-4-(trifluoromethyl)phenyl)chroman-7-sulfonamide], the half-inhibitory concentration (IC50) on Nav 1.5 (setting [1]) is greater than 10 µM. At Nav 1.7, the “Nav1.7 inhibition @ 10 μM” value came to 65%.

As for `O=C1CCCN1c1cc(C(F)(F)F)ccc1[C@H]1CCOc2cc(S(=O)(=O)Nc3ncc(F)cn3)ccc21` [Example 114, (S&R)—N-(5-fluoropyrimidin-2-yl)-4-(2-(2-oxopyrrolidin-1-yl)-4-(trifluoromethyl)phenyl)chroman-7-sulfonamide], the IC50 is greater than 10 µM on Nav 1.5 (setting [1]) and 624 nM at Nav 1.7.

In the case of `COCCOc1cc(C(F)(F)F)ccc1[C@@H]1CCOc2cc(S(=O)(=O)Nc3ncccn3)ccc21` [Example 124, (S&R)-4-(2-(2-methoxyethoxy)-4-(trifluoromethyl)phenyl)-N-(pyrimidin-2-yl)chroman-7-sulfonamide], the “Nav1.5 % inhibition @ 10 μM” value on Nav 1.5 is reported as 71%. The IC50 on Nav 1.7 came to 2230 nM.

As to `COCCOc1cc(C(F)(F)F)ccc1[C@H]1CCOc2cc(S(=O)(=O)Nc3ncccn3)ccc21` [Example 125, (S&R)-4-(2-(2-methoxyethoxy)-4-(trifluoromethyl)phenyl)-N-(pyrimidin-2-yl)chroman-7-sulfonamide], the IC50 stood at 2.64 µM at Nav 1.5 (read-out: Nav1.5 IC50) and 395 nM at Nav 1.7.

As for `COCCCOc1cc(C(F)(F)F)ccc1[C@@H]1CCOc2cc(S(=O)(=O)Nc3ncccn3)ccc21` [Example 130, (S&R)-4-(2-(3-methoxypropoxy)-4-(trifluoromethyl)phenyl)-N-(pyrimidin-2-yl)chroman-7-sulfonamide], the IC50 on Nav 1.5 (setting [1]) is greater than 10 µM; on Nav 1.7, 1690 nM.
